From patent publication US4751227A, “3-cyano-5-(6-imidazo[1,2-a]pyridyl)pyridin-2-ols useful as cardiotonics” (Eisai Co., Ltd., priority 1985, dated 1988)

Key:
[1] = tested on: isolated Guinea Pig heart muscles; assay: Effects of compounds on contractile response of isolated Guinea Pig heart muscles (right ventricular papillary muscles); details: Cavia porcellus, read-out: Contractilities; for activation at 100 µM: Concentration 10^-4 M; for activation at 10 µM: Concentration 10^-5 M; for activation at 1 µM: Concentration 10^-6 M
Experimental: Effects of compounds on contractile response of isolated Guinea Pig heart muscles
Male guinea pigs weighing 300 to 500 g were stunned with a blow on the head and exsanguinated. The chest was opened rapidly, the heart was excised and papillary muscles from the right ventricle were excised.
The preparations were mounted in 10 ml organ bath which were filled with Krebs-Henseleit solution maintained at 36° C. and oxygenated with 95% O2 -5% CO2.
Right ventricular papillary muscles were stimulated electrically at a rate of 1 Hz by a suprathreshold (1.2×threshold) rectangular pulse 3 ms in duration. The resting tension applied to the papillary muscles was adjusted to produce maximum developed tension. The developed tension was recorded isometrically by means of force-displacement transducer. The text compounds were dissolved in diluted hydrochloric acid and were added to the bath. Contractility after administration was compared to that prior to administration.
The test compounds are those prepared in the examples later described.

rats = assay: Acute toxicity test by oral administration in rats; type: in vivo; details: 3 g/kg, 4 in each group
Experimental: (§1) Acute toxicity was tested by oral administration in rats and mice. The results reveal that the compounds of the present invention have extremely low toxicity.

mice = assay: Acute toxicity test by oral administration in mice; type: in vivo; details: 3 g/kg, 4 in each group
Experimental: as §1

Anesthetized Dog = assay: Effect of compounds on cardiac contractility, heart rate and blood pressure in Anesthetized Dog; type: in vivo, mongrel dogs; details: intravenous
Experimental: Effect of compounds on cardiac contractility in Anesthetized Dog
Using male and female mongrel dogs subjected to artificial respiration and anesthetized by inhalation of Halothane cardiotonic effect of compounds was examined. The aortic pressure and the left ventricular pressure were recorded with a catheter inserted from the femoral artery into the aorta of the chest and with a micro tip pressure transducer (Millar) inserted from the carotid into the left ventricle, respectively. The heart rate was monitored by means of a tachograph triggered by the left ventricular pressure pulse. As an index of cardiac contractility, a primary differentation (LV dp/dt max) of the left ventricular pressure pulse was recorded. The test compounds were dissolved in physiological saline or diluted hydrochloric acid or polyethylene glycol and the solutions were intravenously given through the catheter inserted into the femoral vein.
Percent changes by the test compounds in cardiac contractility, heart rate and blood pressure obtained by the foregoing method are shown in Table 2, when compared to those prior to administration of the test compounds. In Table 2, the test compounds are those prepared in the examples later described.

[2] = tested on: coronary and femoral blood flow; assay: Effect of compounds on coronary and femoral blood flow in anesthetized dogs; type: in vivo, mongrel dogs; details: intraarterial
Experimental: Effect of compounds on coronary and femoral blood flow
Using male and femal mongrel dogs thoracotomized at the left 4th intercostal space under artificial respiration and inhalation anesthesia with Halothane, effect of coronary and femoral blood flow was examined by intrarterial administration. By placing an electromagnetic flowprobe around the left circumflex coronary artery and the femoral artery, the blood flows of both arteries were measured. Shallow catheters were inserted in and fixed to the arterial branch distal to the flowprobe and the test compounds were intrarterially administered through the catheters. In this case, the blood pressure, the heart rate and the cardiac contractility were also recorded simultaneously. Each test compound was used by dissolving it in physiological saline, diluted hydrochloric acid or polyethylene glycol in a dose not accompanied by any change in the blood pressure, the heart rate and the cardiac contractility.

platelets = assay: Effect of compounds on platelet aggregation caused by collagen; type: cell-based, healthy volunteers; details: Homo sapiens, collagen 1 μg/ml, read-out: inhibition rate of platelet aggregation
Experimental: Effect of compounds on platelet aggregation
Using platelets obtained from healthy volunteers, effect of compounds on platelet aggregation caused by collagen (1 μg/ml) was examined.

Compound | activation at 100 µM [1] | activation at 10 µM [1] | activation at 1 µM [1] | Change in Blood Pressure (Anesthetized Dog; 10 μg/kg) | Change in Cardiac Contractility (LV dp/dt max) (Anesthetized Dog; 10 μg/kg) | Change in Heart Rate (Anesthetized Dog; 10 μg/kg) | Change in Blood Pressure (Anesthetized Dog; 30 μg/kg) | Change in Cardiac Contractility (LV dp/dt max) (Anesthetized Dog; 30 μg/kg) | Change in Heart Rate (Anesthetized Dog; 30 μg/kg) | Change in Blood Pressure (Anesthetized Dog; 100 μg/kg) | Change in Cardiac Contractility (LV dp/dt max) (Anesthetized Dog; 100 μg/kg) | Change in Heart Rate (Anesthetized Dog; 100 μg/kg) | other results
CCc1[nH]c(=O)c(C#N)cc1-c1ccc2nc(C)cn2c1 [Example 2, 1,2-Dihydro-6-ethyl-5-(2-methylimidazo[1,2-a]pyridin-6-yl)-2-oxo-3-pyridinecarbonitrile] | 106% | 73.5% | 34.1% | – | – | – | – | – | – | – | – | – | –
Cc1[nH]c(=O)c(C#N)cc1-c1ccc2nccn2c1 [Example 1, 1,2-Dihydro-5-(imidazo[1,2-a]pyridin-6-yl)-6-methyl-2-oxo-3-pyridinecarbonitrile] | 129% | 88% | 40.7% | 0% | 16% | 6% | -5% | 68% | 15% | -17% | 97% | 22% | death in acute toxicity test (rats): no death was noted; death in acute toxicity test (mice): no death was noted; Coronary Blood Flow ([2]; dose 3 ug): 25 Δ%; Femoral Blood Flow ([2]; dose 3 ug): 18 Δ%; Coronary Blood Flow ([2]; dose 10 ug): 63 Δ%; Femoral Blood Flow ([2]; dose 10 ug): 51 Δ%; Femoral Blood Flow ([2]; dose 30 ug): 76 Δ%; inhibition at 1 µM (platelets; 1×10^-6 M): 41%; inhibition at 3 µM (platelets; 3×10^-6 M): 90%; inhibition at 0.3 µM (platelets; 3×10^-7 M): 14%
COc1nc(C)c(-c2ccc3nccn3c2)cc1C#N [Example 14, 5-(Imidazo[1,2-a]pyridin-6-yl)-2-methoxy-6-methyl-3-pyridinecarbonitrile] | – | – | – | – | – | – | – | – | – | – | – | – | Change in Blood Pressure (Anesthetized Dog; 300 μg/kg): -6%; Change in Cardiac Contractility (LV dp/dt max) (Anesthetized Dog; 300 μg/kg): 10%; Change in Heart Rate (Anesthetized Dog; 300 μg/kg): 6%; Change in Blood Pressure (Anesthetized Dog; 1000 μg/kg): -4%; Change in Cardiac Contractility (LV dp/dt max) (Anesthetized Dog; 1000 μg/kg): 41%; Change in Heart Rate (Anesthetized Dog; 1000 μg/kg): 0%
Cc1[nH]c(=O)ccc1-c1ccc2nccn2c1 [Example 10, 1,2-Dihydro-6-methyl-5-(imidazo[1,2-a]pyridin-6-yl)-2-oxo-pyridine] | 110% | 76.3% | 37.9% | -2% | 11% | 2% | -5% | 25% | 4% | – | – | – | –
CCc1[nH]c(=O)c(C#N)cc1-c1ccc2nccn2c1 [Example 6, 1,2-Dihydro-6-ethyl-5-(imidazo[1,2-a]pyridin-6-yl)-2-oxo-3-pyridinecarbonitrile] | – | – | – | -1% | 14% | 0% | -2% | 30% | 5% | -7% | 58% | 10% | –
Cc1cn2cc(-c3cc(C#N)c(=O)[nH]c3C)ccc2n1 [Example 7, 1,2-Dihydro-6-methyl-5-(2-methylimidazo[1,2-a]pyridin-6-yl)-2-oxo-3-pyridinecarbonitrile] | 130% | 95.7% | 56.7% | 0% | 21% | 8% | -13% | 114% | 18% | – | – | – | –
